Where “and” joins values, the source holds several entries; their conditions need not be identical. Identical values can stand only once. Like-named read-outs stand apart in the source and are kept apart here.
Legend:
Assay in all cases: Greenhouse test, pre-emergence treatment
ALOMY = type: in vivo, Alopecurus myosuroides; settings: Alopecurus myosuroides, pre-emergence, 480 h; for inhibition at 12.5 g/ha: use rate 12.5 g ai/ha; for inhibition at 25 g/ha: use rate 25 g ai/ha
How it was run: (§1)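 Damage was rated on a 0-100 scale, with 100 meaning no emergence or full destruction of aerial parts. Observed combination effects were set against the additive Colby expectation E=X+Y−(X·Y/100). Spray liquor was water-based, from 10% emulsion concentrates, applied pre-emergence right after sowing in loamy sand (about 3.0% humus). Plants were held at 10-25 °C or 20-35 °C for 2 to 4 weeks.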

ECHCG = type: in vivo, Echinocloa crus-galli; settings: Echinochloa crus-galli, 480 h, read-out: observed % activity 20 DAT; for inhibition at 12.5 g/ha: use rate 12.5 g ai/ha
How it was run: as §1

POLCO = type: in vivo, Polygonum convolvulus; settings: Fallopia convolvulus, 480 h, pre-emergence; for inhibition at 12.5 g/ha: use rate 12.5 g ai/ha
How it was run: as §1

SETFA = type: in vivo, Setaria faberi; settings: Setaria faberi, 480 h, SETFA, 20 DAT, read-out: observed % activity 20 DAT
How it was run: as §1

AVEFA = type: in vivo, Avena fatua; settings: pre-emergence
How it was run: as §1

BRADC = type: in vivo, Brachiaria decumbens; settings: pre-emergence
How it was run: as §1

COMBE = type: in vivo, Commelina benghalensis; settings: Commelina benghalensis, 480 h; pre-emergence, 12 g ai/ha; read-out: observed % activity 20 DAT
How it was run: as §1

EPHHL = type: in vivo, Euphorbia heterophylla; settings: Euphorbia heterophylla, pre-emergence, 480 h, pre-emergence, read-out: observed % activity 20 DAT
How it was run: as §1

GALAP = type: in vivo, Galium aparine; settings: Galium aparine, 480 h, pre-emergence
How it was run: as §1

GERPU = type: in vivo, Geranium pusillum; settings: Geranium pusillum, pre-emergence, 480 h, pre-emergence, read-out: observed % activity 20 DAT
How it was run: as §1

KCHSC = type: in vivo, Kochia scoparia; settings: Bassia scoparia, 480 h, pre-emergence
How it was run: as §1

LOLMU = type: in vivo, Lolium multiflorum; settings: Lolium multiflorum, pre-emergence, 480 h; for inhibition at 12.5 g/ha: use rate 12.5 g ai/ha; for inhibition at 25 g/ha: use rate 25 g ai/ha
How it was run: as §1

PHACA = type: in vivo, Phalaris canariensis; settings: Phalaris canariensis, pre-emergence, 480 h; for inhibition at 12.5 g/ha: use rate 12.5 g ai/ha; for inhibition at 25 g/ha: use rate 25 g ai/ha
How it was run: as §1

SIDRH = type: in vivo, Sida rhombifolia; settings: pre-emergence
How it was run: as §1

CENCY = type: in vivo, Centaurea cyanus; settings: 24 g ai/ha
[1] = 12 g ai/ha, 20 DAT, read-out: observed % activity
[2] = 24 g ai/ha, 20 DAT, read-out: observed % activity
[3] = 6 g ai/ha, read-out: observed % activity 20 DAT
[4] = 12 g ai/ha, read-out: observed % activity 20 DAT
[5] = 24 g ai/ha, read-out: observed % activity 20 DAT
[6] = ALOMY, 20 DAT, read-out: observed % activity 20 DAT
[7] = read-out: observed % activity 20 DAT
[8] = 6 g ai/ha, 20 DAT, read-out: observed % activity
[9] = 8 g ai/ha, read-out: observed % activity 20 DAT
[10] = LOLMU, 20 DAT, read-out: observed % activity 20 DAT
[11] = PHACA, 20 DAT, read-out: observed % activity 20 DAT

Cn1nc(C(F)(F)F)c(CS(=O)(=O)C2=NOC(C)(C)C2)c1OC(F)F [Pyroxasulfone, pyroxasulfone]
inhibition at 12 g/ha (ALOMY; [1]): 95% | inhibition at 24 g/ha (ALOMY; [2]): 98% | pest or weed control at 6 g/ha (ALOMY; [3]): 80% | pest or weed control at 12 g/ha (ALOMY; [4]): 95% | pest or weed control at 24 g/ha (ALOMY; [5]): 98% | inhibition at 12.5 g/ha (ALOMY; [6]): 20% | inhibition at 25 g/ha (ALOMY; [6]): 20% | inhibition at 12.5 g/ha (ALOMY; [7]): 20% | inhibition at 25 g/ha (ALOMY; [7]): 20% | pest or weed control at 8 g/ha (ECHCG; 8 g ai/ha): 70% | inhibition at 12.5 g/ha (ECHCG; ECHCG, 20 DAT): 50% | inhibition at 25 g/ha (ECHCG; ECHCG, use rate 25 g ai/ha, 20 DAT): 90% | inhibition at 12.5 g/ha (ECHCG): 50% | pest or weed control at 12 g/ha (POLCO; [4]): 20% | pest or weed control at 24 g/ha (POLCO; [5]): 20% | inhibition at 12 g/ha (POLCO; [1]): 0% | inhibition at 12.5 g/ha (POLCO; POLCO, 20 DAT, read-out: observed % activity 20 DAT): 0% | inhibition at 12.5 g/ha (POLCO; [7]): 0% | inhibition at 12.5 g/ha (SETFA; use rate 12.5 g ai/ha): 80% | inhibition at 25 g/ha (SETFA; use rate 25 g ai/ha): 95% | inhibition at 6 g/ha (AVEFA; Avena fatua, 480 h, 6 g ai/ha, 20 DAT, read-out: observed % activity): 0% | inhibition at 24 g/ha (AVEFA; Avena fatua, 480 h, 24 g ai/ha, 20 DAT, read-out: observed % activity): 60% | observed % activity 20 DAT (AVEFA; 8 g ai/ha): 40% | observed % activity 20 DAT (AVEFA; 12 g ai/ha): 20% and 30% | observed % activity 20 DAT (AVEFA; 16 g ai/ha): 60% and 35% | observed % activity 20 DAT (AVEFA; 24 g ai/ha): 70% | inhibition at 6 g/ha (BRADC; Urochloa decumbens, 480 h, 6 g ai/ha, 20 DAT, read-out: observed % activity): 53% | pest or weed control at 6 g/ha (BRADC; Urochloa decumbens, 480 h, 6 g ai/ha, read-out: observed % activity 20 DAT): 35% | pest or weed control at 12 g/ha (BRADC; Urochloa decumbens, 480 h, 12 g ai/ha, read-out: observed % activity 20 DAT): 30% | pest or weed control at 16 g/ha (BRADC; Urochloa decumbens, 480 h, 16 g ai/ha, read-out: observed % activity 20 DAT): 55% | pest or weed control at 24 g/ha (BRADC; Urochloa decumbens, 480 h, 24 g ai/ha, read-out: observed % activity 20 DAT): 95% | observed % activity 20 DAT (BRADC; 12 g ai/ha): 30% | pest or weed control at 12 g/ha (COMBE): 90% | pest or weed control at 12 g/ha (EPHHL; 12 g ai/ha): 40% | pest or weed control at 24 g/ha (EPHHL; 24 g ai/ha): 70% | pest or weed control at 12 g/ha (GALAP; [4]): 35% | pest or weed control at 24 g/ha (GALAP; [5]): 50% | inhibition at 12 g/ha (GALAP; [1]): 75% | inhibition at 24 g/ha (GALAP; [2]): 75% | pest or weed control at 12 g/ha (GERPU; 12 g ai/ha): 10% | pest or weed control at 24 g/ha (GERPU; 24 g ai/ha): 20% | pest or weed control at 12 g/ha (KCHSC; [4]): 50% | pest or weed control at 24 g/ha (KCHSC; [5]): 80% | inhibition at 6 g/ha (KCHSC; [8]): 0% | inhibition at 12 g/ha (KCHSC; [1]): 85% | inhibition at 25 g/ha (KCHSC; use rate 25 g ai/ha, read-out: observed % activity 20 DAT): 0% | inhibition at 6 g/ha (LOLMU; [8]): 35% | inhibition at 24 g/ha (LOLMU; [2]): 98% | pest or weed control at 6 g/ha (LOLMU; [3]): 70% | pest or weed control at 8 g/ha (LOLMU; [9]): 50% | pest or weed control at 12 g/ha (LOLMU; [4]): 80% | pest or weed control at 24 g/ha (LOLMU; [5]): 95% | inhibition at 12.5 g/ha (LOLMU; [10]): 30% | inhibition at 25 g/ha (LOLMU; [10]): 40% | inhibition at 12.5 g/ha (LOLMU; [7]): 30% | inhibition at 25 g/ha (LOLMU; [7]): 40% | inhibition at 6 g/ha (PHACA; [8]): 80% | inhibition at 24 g/ha (PHACA; [2]): 95% | pest or weed control at 6 g/ha (PHACA; [3]): 70% | pest or weed control at 8 g/ha (PHACA; [9]): 70% | pest or weed control at 12 g/ha (PHACA; [4]): 75% | pest or weed control at 16 g/ha (PHACA; 16 g ai/ha, read-out: observed % activity 20 DAT): 75% | pest or weed control at 24 g/ha (PHACA; [5]): 95% | inhibition at 12.5 g/ha (PHACA; [11]): 40% | inhibition at 25 g/ha (PHACA; [11]): 55% | inhibition at 12.5 g/ha (PHACA; [7]): 40% | inhibition at 25 g/ha (PHACA; [7]): 55% | pest or weed control at 12 g/ha (SIDRH; Sida rhombifolia, 480 h, 12 g ai/ha, read-out: observed % activity 20 DAT): 45% | pest or weed control at 24 g/ha (SIDRH; Sida rhombifolia, 480 h, 24 g ai/ha, read-out: observed % activity 20 DAT): 95% | observed % activity 20 DAT (SIDRH; 12 g ai/ha): 45% | observed % activity 20 DAT (CENCY): 15%
